Test results taken from patent publication US11198673B2, “Therapeutic compounds and compositions” (eXIthera Pharmaceuticals, Inc., priority 2014, dated 2021).

Experiments:
[1] = target: T1, human Factor XIa (Homo sapiens, UniProt P03951); assay: Factor XIa enzyme inhibition assay (IC50, purified enzyme); assay type: biochemical; conditions: purified enzyme 0.25 nM, substrate 50 μM; read-out: Potency hFXIa IC50
T1 construct: Enzyme: Factor XIa; 0.25 μM in 50% glycerol (20 μg/mL)
Outline: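 Fluorogenic Glp-Pro-Arg-AMC cleavage, 50 μM substrate, 0.25 nM enzyme, in 20 mM Hepes pH 7.4, 150 mM NaCl, 0.02% Tween 20. Serial two-fold compound dilutions from starting concentrations of 20, 2 and 0.2 μM. Read every minute for 30 min at 30° C; IC50 from a four-parameter fit of dose-response.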

[2] = target: T2, Factor Xa (Homo sapiens, UniProt P00742); assay: Dose response assay for protease inhibitors: Factor Xa (FXIa fold selectivity); assay type: biochemical; conditions: fold selectivity for FXIa over Factor Xa
T2 construct: Factor Xa; 0.2 μM in 50% glycerol (9.2 μg/mL)

[3] = target: T3, Thrombin (Homo sapiens, UniProt P00734); assay: Dose response assay for protease inhibitors: thrombin (FXIa fold selectivity); assay type: biochemical; conditions: fold selectivity for FXIa over thrombin
T3 construct: Thrombin; 0.2 μM in 50% glycerol (7.34 μg/mL)

[4] = system: Trypsin; assay: Dose response assay for protease inhibitors: trypsin (FXIa fold selectivity); assay type: biochemical; conditions: fold selectivity for FXIa over trypsin
[5] = β-Lactam stability in rat plasma; assay type: in vitro ADME; conditions: normal rat plasma, room temperature; read-out: Rat Plasma Stability (T1/2; min)
Outline: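 Compounds incubated in normal rat plasma at room temperature, sampled into acetonitrile from 2 to 480 min. Supernatants analysed by HPLC-MS on C18, extracted ion chromatograms of parent and parent+18 (H2O adduct) integrated; T½ = ln(2)/k from single-phase exponential decay fit.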

[6] = in vitro; conditions: for fraction unbound at 4 h, 10 µM: both, human, plasma, pH 7.4
Procedure: The following procedure was used to determine the plasma protein binding of a test compound in pooled plasma from human (mixed gender) via equilibrium dialysis in a 96-well plate format. The dialysate compartment is loaded with phosphate-buffered saline (pH 7.4) and the sample side is loaded with plasma spiked with the test compound at a concentration of 10 μM. After loading, samples are covered and incubated for 4 hours at 37° C. After incubation, each compartment is sampled, diluted with acetonitrile/buffer and centrifuged. The supernatants are analyzed by HPLC-MS/MS. The amount measured in the plasma compartment includes both free and bound drug, while that on the buffer side represents free drug only; the differences are used to calculate the percentage plasma protein bound.

[7] = physchem; assay type: physicochemical; conditions: pH 7.4, aqueous buffer, kinetic from dmso stock
Procedure: The test compound was prepared at 200 μM in PBS from a 10 mM DMSO stock solution. The final DMSO concentration was 2%. The PBS buffer samples were mixed thoroughly followed by incubation at room temperature for 24 h. At the end of the incubation, the PBS buffer samples were centrifuged and supernatants analyzed by HPLC.

[8] = in vitro; conditions: both, human, microsomes, pH 7.4
Procedure: The following procedure was used to determine the stability of a test compound in pooled liver microsomes from human (mixed gender) in 96-well plate format. The test compound was quantified at five time points by HPLC-MS/MS analysis. The final microsomal protein concentration in the assay was 0.1 mg/mL. […] The test compound was pre-incubated with human liver microsomes in phosphate buffer (pH 7.4) for 5 min in a 37° C. shaking waterbath. The reaction was initiated by adding NADPH-generating system and incubated for 0, 15, 30, 45, and 60 minutes. The reaction was stopped by transferring the incubation mixture to acetonitrile/methanol. Samples were then mixed and centrifuged and the supernatants used for HPLC-MS/MS analysis. Peak areas corresponding to the test compound were recorded. The compound remaining was calculated by comparing the peak area at each time point to time zero.

T1 sequence (P03951 388-625 limits assumed): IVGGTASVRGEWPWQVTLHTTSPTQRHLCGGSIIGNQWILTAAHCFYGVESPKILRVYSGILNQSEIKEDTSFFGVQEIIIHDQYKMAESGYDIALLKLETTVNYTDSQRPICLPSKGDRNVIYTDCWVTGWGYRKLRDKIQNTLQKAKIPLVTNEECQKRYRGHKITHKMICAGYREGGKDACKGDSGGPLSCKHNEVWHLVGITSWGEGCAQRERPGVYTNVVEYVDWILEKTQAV
T1 sequence (P03951 19-387 partner limits assumed): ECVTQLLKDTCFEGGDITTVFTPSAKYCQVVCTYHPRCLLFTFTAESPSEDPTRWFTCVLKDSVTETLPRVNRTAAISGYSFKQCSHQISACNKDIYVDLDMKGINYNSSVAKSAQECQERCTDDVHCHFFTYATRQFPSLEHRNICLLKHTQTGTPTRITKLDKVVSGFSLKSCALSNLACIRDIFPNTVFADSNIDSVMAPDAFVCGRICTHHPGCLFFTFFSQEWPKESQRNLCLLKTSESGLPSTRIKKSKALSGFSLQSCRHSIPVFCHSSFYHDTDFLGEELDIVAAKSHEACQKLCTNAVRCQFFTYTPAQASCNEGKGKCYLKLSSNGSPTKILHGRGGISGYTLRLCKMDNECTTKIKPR
T2 sequence (P00742 235-488 limits assumed): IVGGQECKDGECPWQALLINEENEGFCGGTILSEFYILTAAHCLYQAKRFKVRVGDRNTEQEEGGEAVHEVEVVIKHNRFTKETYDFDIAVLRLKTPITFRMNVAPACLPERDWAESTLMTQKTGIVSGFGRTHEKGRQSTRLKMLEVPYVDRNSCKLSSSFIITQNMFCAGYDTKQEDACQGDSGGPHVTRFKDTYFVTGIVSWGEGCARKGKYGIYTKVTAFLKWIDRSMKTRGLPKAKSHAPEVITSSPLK
T2 sequence (P00742 41-179 partner limits assumed): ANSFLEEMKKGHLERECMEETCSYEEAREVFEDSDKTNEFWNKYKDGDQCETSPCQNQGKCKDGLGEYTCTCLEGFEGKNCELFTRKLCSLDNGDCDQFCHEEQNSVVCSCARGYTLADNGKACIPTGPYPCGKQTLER

C[C@@H](NC(=O)N1C(=O)[C@H](Cc2ccncc2)[C@H]1C(=O)O)c1ccc2c(c1)OC(F)(F)O2 [Example 169]
IC50 [1]: 100 to 1000 nM | FXIa Fold Selectivity FXa [2]: G (“G” indicates 1-500) | FXIa Fold Selectivity Thrombin [3]: H (“H” indicates 500-1000) | FXIa Fold Selectivity Trypsin [4]: G (“G” indicates 1-500) | half-life [5]: > 1.67 h | fraction unbound at 4 h, 10 µM [6]: 0.02 to 0.1 | solubility at 4 h [7]: > 100 µM | half-life at 0.1 µM [8]: > 1 h

CC(C)C(=O)OCOC(=O)Nc1cc(C[C@H]2C(=O)N(C(=O)N[C@H](C)c3ccc4c(c3)OC(F)(F)O4)[C@@H]2C(=O)O)ccn1 [Example 100]
IC50 [1]: 100 to 1000 nM | FXIa Fold Selectivity FXa [2]: G (“G” indicates 1-500) | FXIa Fold Selectivity Thrombin [3]: G (“G” indicates 1-500) | FXIa Fold Selectivity Trypsin [4]: G (“G” indicates 1-500) | fraction unbound at 4 h, 10 µM [6]: < 0.02 | solubility at 4 h [7]: > 100 µM | half-life at 0.1 µM [8]: < 0.5 h

O=C(O)[C@@H]1[C@@H](CCc2cccc(Cl)c2)C(=O)N1C(=O)N[C@@H](C1CCCCC1)C(F)(F)F [Example 134]
IC50 [1]: 100 to 1000 nM | FXIa Fold Selectivity FXa [2]: G (“G” indicates 1-500) | FXIa Fold Selectivity Thrombin [3]: G (“G” indicates 1-500) | FXIa Fold Selectivity Trypsin [4]: G (“G” indicates 1-500) | half-life [5]: > 1.67 h | fraction unbound at 4 h, 10 µM [6]: < 0.02 | solubility at 4 h [7]: > 100 µM | half-life at 0.1 µM [8]: 0.5 to 1 h

CCCC(=O)Nc1ccc(OCC(O)CNC(C)C)c(C(C)=O)c1 (stereo not shown) [acebutolol, reference compound]
binding of reference compounds to human plasma proteins [6]: low

C[C@@H](NC(=O)N1C(=O)C(Cc2ccnc(Cl)c2)[C@H]1C(=O)O)c1ccc2c(c1)OC(F)(F)O2 (stereo partly shown) [Example 128]
IC50 [1]: > 1000 nM | half-life [5]: > 1.67 h | fraction unbound at 4 h, 10 µM [6]: < 0.02 | solubility at 4 h [7]: > 100 µM | half-life at 0.1 µM [8]: > 1 h

CCOC(=O)[C@@H]1C(CCc2cccc(Cl)c2)C(=O)N1C(=O)N[C@@H](C1CCCCC1)C(F)(F)F (stereo partly shown) [Example 158]
IC50 [1]: 100 to 1000 nM | fraction unbound at 4 h, 10 µM [6]: > 0.1 | solubility at 4 h [7]: < 1 µM | half-life at 0.1 µM [8]: 0.5 to 1 h

C=C[C@H]1C[N@@]2CC[C@H]1C[C@@H]2[C@@H](O)c1ccnc2ccc(OC)cc12 [quinidine, reference compound]
binding of reference compounds to human plasma proteins [6]: medium

Nc1cc(C[C@H]2C(=O)N(C(=O)N[C@@H](C3CCCCC3)C(F)(F)F)[C@@H]2C(=O)O)ccn1 [Example 88]
IC50 [1]: < 10 nM | FXIa Fold Selectivity FXa [2]: I (“I” indicates >1000) | FXIa Fold Selectivity Thrombin [3]: I (“I” indicates >1000) | FXIa Fold Selectivity Trypsin [4]: G (“G” indicates 1-500) | half-life [5]: > 1.67 h | fraction unbound at 4 h, 10 µM [6]: > 0.1 | solubility at 4 h [7]: > 100 µM | half-life at 0.1 µM [8]: > 1 h

C[C@@H](NC(=O)N1C(=O)[C@H](Cc2ccnc(N)c2)[C@H]1C(=O)O)C1CCCCC1 [Example 38]
IC50 [1]: < 10 nM | FXIa Fold Selectivity FXa [2]: I (“I” indicates >1000) | FXIa Fold Selectivity Thrombin [3]: I (“I” indicates >1000) | FXIa Fold Selectivity Trypsin [4]: H (“H” indicates 500-1000) | half-life [5]: > 1.67 h | fraction unbound at 4 h, 10 µM [6]: > 0.1 | solubility at 4 h [7]: > 100 µM | half-life at 0.1 µM [8]: > 1 h

C[C@@H](NC(=O)N1C(=O)[C@H](Cc2ccnc(N)c2)[C@H]1C(=O)O)c1ccc2c(c1)OC(F)(F)O2 [Example 91]
IC50 [1]: < 10 nM | FXIa Fold Selectivity FXa [2]: I (“I” indicates >1000) | FXIa Fold Selectivity Thrombin [3]: I (“I” indicates >1000) | FXIa Fold Selectivity Trypsin [4]: G (“G” indicates 1-500) | half-life [5]: > 1.67 h | fraction unbound at 4 h, 10 µM [6]: 0.02 to 0.1 | solubility at 4 h [7]: > 100 µM | half-life at 0.1 µM [8]: > 1 h
